According to US12643891B2, “SPAK/OSR inhibitors and methods of using same” (YALE UNIVERSITY, priority 2019, dated 2026):
pIC50: −log10 of the molar value.

How the values were obtained:
primary GBM cells = assay: Nanogrooved pattern glioblastoma cell migration assay; type: cell-based, human; conditions: in vitro
Description: Cell culture: All primary cell lines were derived from intraoperative tissue samples from patients treated surgically for newly diagnosed glioblastoma multiforme without prior treatment. Primary cells were cultured in Dulbecco's Modified Eagle Medium: Nutrient Mixture F-12, B27 serum free supplement (Gibco), 20 ng/mL epidermal growth factor (EGF), and 20 ng/ml fibroblast-derived growth factor (FGF).
Nanogrooved pattern cell migration assay: Migration of glioma cells was quantified using a novel directional migration assay using nano-ridges/grooves of 400 nm in groove width, 400 nm in ridge width, and 500 nm in depth, constructed of transparent poly(urethane acrylate) (PUA), and fabricated using UV-assisted capillary lithography (Kim & Eberwine, 2010, Anal. Bioanl. Chem. 397:3173-3178). Cells were cultured on glass covered with a nanogrooved pattern substratum, which was previously glued onto the bottom surface of the custom-made Mat-tek dish (P35G-20-C). […] Cell migration was quantified using time-lapse microscopy using a motorized inverted microscope (Olympus IX81) equipped with a Cascade 512B II CCD camera and temperature and gas controlling environmental chamber. Phase-contrast and epi-fluorescent cell images were automatically recorded under 4*1.6× objective using the Slidebook 4.1 (Intelligent Imaging Innovations, Denver, CO) for 10 hours at 10 minute intervals. […]

GBM cell lines [1] = assay: Glioblastoma cell proliferation / viability (MTT); type: cell-based, human; conditions: FIG. 30
Description: Glioblastoma cells were plated in triplicates in 96-well plates at a cell density of 10,000 cells per well and incubated with increasing concentrations of (7a) inhibitor for 72 hs. Cell viability was determined by Thiazolyl Blue Tetrazolium Bromide (MTT) assay (Sigma) according to manufacturer instructions. IC50 was determined using GraphPad software by non-linear regression analysis (log (inh) vs. normalized response).

[2] = test system: GMB intracranial xenograft; assay: Human GBM intracranial xenograft mouse model; type: in vivo
Source text: FIGS. 32A-32B illustrate that (6a) reduces tumor growth in vivo in a human GMB intracranial xenograft mouse model. FIG. 32A: Schematic of the human GMB intracranial xenograft. FIG. 32B: Tumor growth profiles at two (6a) doses.

primary human astrocytes = assay: Migration of primary human astrocytes; type: cell-based
melanoma cells = assay: Melanoma cell migration in vitro; type: cell-based; conditions: FIG. 35
pancreatic cancer cells = assay: Pancreatic cancer cell migration in vitro; type: cell-based; conditions: FIG. 36
GBM cell lines [3] = assay: Annexin V apoptosis assay in GBM cell lines; type: cell-based, human; conditions: 1 μM, four GBM cell lines
Description: FIG. 37 depicts annexin V assays performed on four GBM cell lines after 1 μM of (6a) or vehicle control.

GBM cells [4] = assay: Cell cycle FACS analysis of GBM cell lines; type: cell-based, human; conditions: 2 μM
Description: FIG. 38A: Example cell cycle FACS data for 612 cells treated with 2 μM of (6a). FIG. 38B: Cell cycle analysis of GBM cell lines treated with 2 μM of (6a).

GBM 612, GBM120 = assay: Temozolomide IC50 in combination with (6a) in GBM cell lines; type: cell-based, human
Source text: FIG. 39 depicts that the IC50 values for temozolomide (TMZ) decrease 2-4 fold when used in combination (6a) in two different GBM cell lines (GBM 612, GBM120).

GBM cells [5] = assay: Clonogenicity of GBM cells after (6a) pre-treatment and irradiation; type: cell-based, human; conditions: 24 hs pre-treatment 1 μM, irradiated; 15 days after treatment
Description: (§1) FIGS. 40A-40C depict that SPAK/OSR1 inhibition sensitizes GBM to radiation and decreases expression of DNA damage response genes. FIG. 40A: GBM cells were pre-treated for 24 hs with 1 μM (6a) or vehicle control and irradiated. After 72 hs, cells were re-plated to study clonogenicity. […] FIG. 40C: Expression of DNA damage response genes by RNAseq in cells treated with (6a) for 6 hs (dashed line delimits p<0.05).

PARP-1 = PARP-1 Western blot in GBM cells; type: cell-based, human; conditions: after 24 hs
Description: as §1

[6] = Formulation/tolerance test, intracranial, healthy tumor free mice; type: in vivo; conditions: 100 μM in DMSO/PEG formulation, intracranially
Description: FIG. 41 depicts treating healthy, tumor free, mice (ms_#) intracranially with a DMSO/PEG formulation containing vehicle or 100 μM (6a).

SPAK = target: T1, SPAK (Homo sapiens, UniProt Q9UEW8); assay: In vitro SPAK ELISA assay monitoring NKCC1 phosphorylation (T^PNKCC1 antibody); type: biochemical; conditions: screening platform, FIG. 21; read-out: in vitro IC50
T1 construct: GST (N, cleaved yes); made in house; host or cells: E. coli EcAR7 with Sep-OTS

## COc1ccc(Nc2ncc(C#N)c(Nc3ccccc3C(N)=O)n2)cc1N1CCN(C)CC1 [(6a), 2-((5-cyano-2-((4-methoxy-3-(4-methylpiperazin-1-yl)phenyl)amino)pyrimidin-4-yl)amino)benzamide]
Primary GBM cells
  migration of primary GBM cells: reduced migration of primary GBM cells
GBM cell lines [1]
  proliferation and viability of primary GBM cell lines: impedes proliferation and viability
[2]
  overall survival: extended overall survival
  tumor growth: reduction in tumor growth
  tumor volume: reduced tumor volume
Primary human astrocytes
  activity on primary human astrocytes (migration): not active
Melanoma cells
  melanoma cell migration: reduced melanoma cell migration
Pancreatic cancer cells
  pancreatic cancer cell migration: reduced
GBM cell lines [3]
  apoptosis in GBM cell lines: induces apoptosis
GBM cells [4]
  cell cycle arrest in GBM cells: induces G2-M arrest
GBM 612, GBM120
  decrease of temozolomide (TMZ) IC50 in combination with (6a): 2-4 fold
GBM cells [5]
  clonogenic potential after irradiation: lowest in the combination treatment
PARP-1
  full length PARP-1 level: decrease full length PARP-1
[6]
  tolerance: well tolerated
SPAK
  pIC50: ~7.22
